Measured values: ChEMBL document CHEMBL1641539 (Bioorg Med Chem Lett, 2011)

Columns and labels:
[1] = biological target: Tyrosine-protein kinase Lck (Homo sapiens) (UniProt P06239); assay: Inhibition of human Lck at 10 uM after 60 mins by TR-FRET assay; settings: values are per cent of control
[2] = biological target: Tyrosine-protein kinase Lyn (Homo sapiens) (UniProt P07948); assay: Inhibition of human Lyn at 10 uM after 60 mins by TR-FRET assay; settings: values are per cent of control
[3] = biological target: Tyrosine-protein kinase SYK (Homo sapiens) (UniProt P43405); assay: Inhibition of human Syk at 10 uM after 60 mins by TR-FRET assay; settings: values are per cent of control
[4] = biological target: MAP kinase-activated protein kinase 5 (Homo sapiens) (UniProt Q8IW41); assay: Residual activity of human PRAK at 10 uM after 60 mins by TR-FRET assay
[5] = biological target: Tyrosine-protein kinase Fes/Fps (Homo sapiens) (UniProt P07332); assay: Inhibition of human Fes at 10 uM after 60 mins by TR-FRET assay; values are per cent of control
Tyrosine-protein kinase Fes/Fps (Homo sapiens), sequence (P07332 whole entry): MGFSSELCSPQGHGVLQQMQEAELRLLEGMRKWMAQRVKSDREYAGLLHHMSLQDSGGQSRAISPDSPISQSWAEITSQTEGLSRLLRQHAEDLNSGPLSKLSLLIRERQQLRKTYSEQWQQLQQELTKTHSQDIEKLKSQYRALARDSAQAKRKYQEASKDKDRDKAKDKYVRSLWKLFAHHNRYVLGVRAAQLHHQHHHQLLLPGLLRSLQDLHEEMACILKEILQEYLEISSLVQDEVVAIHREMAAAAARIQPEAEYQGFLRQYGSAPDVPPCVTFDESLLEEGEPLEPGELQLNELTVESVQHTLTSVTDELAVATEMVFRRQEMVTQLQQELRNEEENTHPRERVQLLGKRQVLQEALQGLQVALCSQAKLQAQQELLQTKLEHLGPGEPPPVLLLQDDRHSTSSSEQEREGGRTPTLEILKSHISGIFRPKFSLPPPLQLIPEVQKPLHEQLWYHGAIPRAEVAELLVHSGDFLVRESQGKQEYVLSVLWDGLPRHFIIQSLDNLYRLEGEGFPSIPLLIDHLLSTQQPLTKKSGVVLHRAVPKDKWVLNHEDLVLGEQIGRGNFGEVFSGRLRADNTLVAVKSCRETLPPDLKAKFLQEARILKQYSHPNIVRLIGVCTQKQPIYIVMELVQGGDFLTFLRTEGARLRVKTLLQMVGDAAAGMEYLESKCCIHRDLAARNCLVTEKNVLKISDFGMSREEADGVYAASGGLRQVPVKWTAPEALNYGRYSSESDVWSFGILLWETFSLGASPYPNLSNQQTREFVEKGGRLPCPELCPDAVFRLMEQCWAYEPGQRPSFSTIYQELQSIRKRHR

[6] = biological target: Serine/threonine-protein kinase NLK (Homo sapiens) (UniProt Q9UBE8); assay: Inhibition of human NLK at 10 uM after 60 mins by TR-FRET assay; values are per cent of control
Serine/threonine-protein kinase NLK (Homo sapiens), sequence (Q9UBE8 whole entry): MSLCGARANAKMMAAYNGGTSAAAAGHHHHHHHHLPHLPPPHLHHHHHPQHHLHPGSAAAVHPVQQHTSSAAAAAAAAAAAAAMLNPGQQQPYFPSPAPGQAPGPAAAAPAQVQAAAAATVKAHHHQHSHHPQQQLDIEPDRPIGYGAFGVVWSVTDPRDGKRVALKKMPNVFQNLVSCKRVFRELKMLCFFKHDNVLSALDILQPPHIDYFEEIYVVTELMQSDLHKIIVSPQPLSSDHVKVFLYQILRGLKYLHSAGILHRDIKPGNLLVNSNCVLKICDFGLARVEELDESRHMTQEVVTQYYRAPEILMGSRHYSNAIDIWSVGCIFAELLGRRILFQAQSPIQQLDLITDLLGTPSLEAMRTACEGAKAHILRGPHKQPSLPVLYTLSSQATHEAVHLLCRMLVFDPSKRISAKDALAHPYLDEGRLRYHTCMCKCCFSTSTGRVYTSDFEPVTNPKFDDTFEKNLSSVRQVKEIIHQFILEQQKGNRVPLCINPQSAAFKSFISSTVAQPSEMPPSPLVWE

[7] = biological target: Tyrosine-protein kinase receptor UFO (Homo sapiens) (UniProt P30530); assay: Inhibition of human Axl at 10 uM after 60 mins by TR-FRET assay; values are per cent of control
Tyrosine-protein kinase receptor UFO (Homo sapiens), sequence (P30530 whole entry): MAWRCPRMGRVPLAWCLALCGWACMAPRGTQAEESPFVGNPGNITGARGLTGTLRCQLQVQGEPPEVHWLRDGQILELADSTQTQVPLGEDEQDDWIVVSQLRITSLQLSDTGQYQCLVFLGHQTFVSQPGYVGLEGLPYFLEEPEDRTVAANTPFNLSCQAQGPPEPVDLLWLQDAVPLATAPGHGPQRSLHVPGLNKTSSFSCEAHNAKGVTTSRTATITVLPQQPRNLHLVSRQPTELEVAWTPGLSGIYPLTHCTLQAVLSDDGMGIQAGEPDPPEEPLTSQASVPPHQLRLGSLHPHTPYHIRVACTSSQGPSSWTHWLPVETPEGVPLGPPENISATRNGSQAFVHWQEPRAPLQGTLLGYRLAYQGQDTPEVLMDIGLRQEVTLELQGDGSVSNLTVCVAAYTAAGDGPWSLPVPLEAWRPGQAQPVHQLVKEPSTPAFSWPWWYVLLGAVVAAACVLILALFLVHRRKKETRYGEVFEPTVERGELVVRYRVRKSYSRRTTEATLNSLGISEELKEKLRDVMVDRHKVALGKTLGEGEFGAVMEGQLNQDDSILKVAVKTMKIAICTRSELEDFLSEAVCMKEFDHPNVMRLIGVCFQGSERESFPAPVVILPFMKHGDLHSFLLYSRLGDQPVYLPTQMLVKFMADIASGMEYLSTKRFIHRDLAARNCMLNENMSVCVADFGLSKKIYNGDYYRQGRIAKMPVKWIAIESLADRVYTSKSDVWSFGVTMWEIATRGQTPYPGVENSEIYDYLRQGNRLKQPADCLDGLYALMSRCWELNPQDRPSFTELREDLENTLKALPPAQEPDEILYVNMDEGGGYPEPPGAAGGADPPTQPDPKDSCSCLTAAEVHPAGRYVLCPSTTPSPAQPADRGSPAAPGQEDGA

[8] = biological target: Cytoplasmic tyrosine-protein kinase BMX (Homo sapiens) (UniProt P51813); assay: Inhibition of human Bmx at 10 uM after 60 mins by TR-FRET assay; values are per cent of control
[9] = biological target: Protein-tyrosine kinase 6 (Homo sapiens) (UniProt Q13882); assay: Inhibition of human BRK at 10 uM after 60 mins by TR-FRET assay; values are per cent of control
[10] = biological target: Casein kinase II (Homo sapiens) (UniProt P67870+P68400+P19784); assay: Inhibition of human CK2 at 10 uM after 60 mins by TR-FRET assay; values are per cent of control
Homo sapiens = species: Homo sapiens; assay: Inhibition of human PKA at 10 uM after 60 mins by TR-FRET assay; values are per cent of control
[11] = biological target: Maternal embryonic leucine zipper kinase (Homo sapiens) (UniProt Q14680); assay: Inhibition of human MELK at 10 uM after 60 mins by TR-FRET assay; values are per cent of control
[12] = biological target: Misshapen-like kinase 1 (Homo sapiens) (UniProt Q8N4C8); assay: Inhibition of human MINK at 10 uM after 60 mins by TR-FRET assay; values are per cent of control
[13] = biological target: Myosin light chain kinase, smooth muscle (Homo sapiens) (UniProt Q15746); assay: Inhibition of human MLCK at 10 uM after 60 mins by TR-FRET assay; values are per cent of control
[14] = biological target: Muscle, skeletal receptor tyrosine-protein kinase (Homo sapiens) (UniProt O15146); assay: Inhibition of human MuSK at 10 uM after 60 mins by TR-FRET assay; values are per cent of control
Muscle, skeletal receptor tyrosine-protein kinase (Homo sapiens), sequence (O15146 whole entry): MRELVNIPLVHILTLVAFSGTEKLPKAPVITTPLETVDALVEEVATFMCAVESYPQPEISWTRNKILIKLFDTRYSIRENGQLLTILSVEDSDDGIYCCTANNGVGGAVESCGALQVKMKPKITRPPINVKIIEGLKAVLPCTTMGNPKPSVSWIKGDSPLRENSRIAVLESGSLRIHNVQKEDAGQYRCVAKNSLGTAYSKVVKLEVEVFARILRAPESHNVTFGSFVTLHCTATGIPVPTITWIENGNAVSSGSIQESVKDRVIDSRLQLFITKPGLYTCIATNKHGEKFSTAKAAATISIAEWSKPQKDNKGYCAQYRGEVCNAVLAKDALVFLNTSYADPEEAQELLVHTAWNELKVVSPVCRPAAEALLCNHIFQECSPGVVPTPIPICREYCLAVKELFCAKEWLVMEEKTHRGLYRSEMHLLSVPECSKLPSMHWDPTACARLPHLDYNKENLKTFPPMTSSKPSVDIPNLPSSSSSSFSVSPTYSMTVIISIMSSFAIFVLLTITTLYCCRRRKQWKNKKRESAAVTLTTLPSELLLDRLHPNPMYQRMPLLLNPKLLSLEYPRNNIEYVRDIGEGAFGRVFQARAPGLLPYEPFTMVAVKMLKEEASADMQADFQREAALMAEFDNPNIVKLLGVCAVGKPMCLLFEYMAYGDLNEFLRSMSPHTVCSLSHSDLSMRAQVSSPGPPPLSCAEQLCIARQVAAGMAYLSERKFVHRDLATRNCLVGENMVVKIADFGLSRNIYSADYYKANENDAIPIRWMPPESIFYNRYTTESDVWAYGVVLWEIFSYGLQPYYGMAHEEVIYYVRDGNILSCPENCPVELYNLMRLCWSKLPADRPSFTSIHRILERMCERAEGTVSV

[15] = biological target: Serine/threonine-protein kinase Nek2 (Homo sapiens) (UniProt P51955); assay: Inhibition of human NEK2 at 10 uM after 60 mins by TR-FRET assay; values are per cent of control
[16] = biological target: Serine/threonine-protein kinase TAO3 (Homo sapiens) (UniProt Q9H2K8); assay: Inhibition of human TAO3 at 10 uM after 60 mins by TR-FRET assay; values are per cent of control
[17] = biological target: Serine/threonine-protein kinase TBK1 (Homo sapiens) (UniProt Q9UHD2); assay: Inhibition of human TBK1 at 10 uM after 60 mins by TR-FRET assay; values are per cent of control
[18] = biological target: Dual specificity protein kinase CLK2 (Homo sapiens) (UniProt P49760); assay: Inhibition of human CLK2 at 10 uM after 60 mins by TR-FRET assay; values are per cent of control
Dual specificity protein kinase CLK2 (Homo sapiens), sequence (P49760 whole entry, looked up): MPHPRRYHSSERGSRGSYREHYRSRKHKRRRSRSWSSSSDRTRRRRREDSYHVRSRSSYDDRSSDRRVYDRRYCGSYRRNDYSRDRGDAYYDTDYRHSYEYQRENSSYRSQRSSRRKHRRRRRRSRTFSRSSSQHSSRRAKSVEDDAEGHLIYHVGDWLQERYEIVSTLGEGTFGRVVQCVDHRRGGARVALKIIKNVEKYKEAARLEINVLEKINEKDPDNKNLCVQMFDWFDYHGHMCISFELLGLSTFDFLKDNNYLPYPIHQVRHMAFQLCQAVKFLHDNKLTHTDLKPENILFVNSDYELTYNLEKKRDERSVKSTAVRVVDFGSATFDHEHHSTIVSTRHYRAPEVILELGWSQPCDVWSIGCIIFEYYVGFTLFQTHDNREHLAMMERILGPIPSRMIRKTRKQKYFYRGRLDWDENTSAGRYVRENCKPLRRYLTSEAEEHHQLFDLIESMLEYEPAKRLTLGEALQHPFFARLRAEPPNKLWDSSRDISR

[19] = biological target: Serine/threonine-protein kinase PAK 4 (Homo sapiens) (UniProt O96013); assay: Inhibition of human PAK4 at 10 uM after 60 mins by TR-FRET assay; values are per cent of control
Serine/threonine-protein kinase PAK 4 (Homo sapiens), sequence (O96013 whole entry, looked up): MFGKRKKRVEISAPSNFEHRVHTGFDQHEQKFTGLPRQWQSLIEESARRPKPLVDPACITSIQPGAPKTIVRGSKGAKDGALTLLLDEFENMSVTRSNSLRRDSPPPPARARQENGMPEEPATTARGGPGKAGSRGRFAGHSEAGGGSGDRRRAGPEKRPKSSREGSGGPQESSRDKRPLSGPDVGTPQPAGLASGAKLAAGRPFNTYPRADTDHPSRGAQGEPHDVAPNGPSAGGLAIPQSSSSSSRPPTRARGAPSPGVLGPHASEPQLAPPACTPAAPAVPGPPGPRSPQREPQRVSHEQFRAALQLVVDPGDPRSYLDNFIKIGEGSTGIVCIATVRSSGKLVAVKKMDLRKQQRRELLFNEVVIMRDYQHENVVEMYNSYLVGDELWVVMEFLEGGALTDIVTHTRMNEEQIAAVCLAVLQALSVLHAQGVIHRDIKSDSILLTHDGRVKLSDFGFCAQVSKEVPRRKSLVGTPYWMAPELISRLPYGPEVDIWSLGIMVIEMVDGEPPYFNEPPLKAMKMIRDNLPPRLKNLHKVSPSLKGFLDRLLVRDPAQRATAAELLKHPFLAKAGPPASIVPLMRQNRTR

[20] = biological target: Serine/threonine-protein kinase D2 (Homo sapiens) (UniProt Q9BZL6); assay: Inhibition of human PKD2 at 10 uM after 60 mins by TR-FRET assay; values are per cent of control
[21] = biological target: Ephrin type-A receptor 2 (Homo sapiens) (UniProt P29317); assay: Inhibition of human EphA2 at 10 uM after 60 mins by TR-FRET assay; values are per cent of control
[22] = biological target: Serine/threonine-protein kinase Nek11 (Homo sapiens) (UniProt Q8NG66); assay: Inhibition of human NEK11 at 10 uM after 60 mins by TR-FRET assay; values are per cent of control
[23] = biological target: Proto-oncogene tyrosine-protein kinase Src (Homo sapiens) (UniProt P12931); assay: Inhibition of human c-SRC at 10 uM after 60 mins by TR-FRET assay; values are per cent of control
Proto-oncogene tyrosine-protein kinase Src (Homo sapiens), sequence (P12931 2-536 limits assumed): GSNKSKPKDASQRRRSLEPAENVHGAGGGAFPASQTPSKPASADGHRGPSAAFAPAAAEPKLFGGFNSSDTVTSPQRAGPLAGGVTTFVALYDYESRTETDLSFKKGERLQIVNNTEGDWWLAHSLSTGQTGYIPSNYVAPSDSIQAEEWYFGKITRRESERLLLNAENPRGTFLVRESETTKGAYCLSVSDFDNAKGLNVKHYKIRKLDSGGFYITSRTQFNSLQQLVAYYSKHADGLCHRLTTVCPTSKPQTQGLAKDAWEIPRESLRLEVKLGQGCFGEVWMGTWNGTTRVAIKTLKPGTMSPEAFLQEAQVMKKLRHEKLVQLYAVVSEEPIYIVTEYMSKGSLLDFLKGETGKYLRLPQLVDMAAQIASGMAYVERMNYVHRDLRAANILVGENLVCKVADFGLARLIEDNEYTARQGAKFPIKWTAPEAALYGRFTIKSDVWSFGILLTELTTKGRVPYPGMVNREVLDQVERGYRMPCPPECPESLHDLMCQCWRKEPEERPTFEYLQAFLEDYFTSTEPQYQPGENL

[24] = biological target: Death-associated protein kinase 1 (Homo sapiens) (UniProt P53355); assay: Inhibition of human DAPK1 at 10 uM after 60 mins by TR-FRET assay; values are per cent of control
[25] = biological target: Rho-associated protein kinase 1 (Homo sapiens) (UniProt Q13464); assay: Inhibition of human ROCK-1 at 10 uM after 60 mins by TR-FRET assay; values are per cent of control
[26] = biological target: Protein kinase C zeta type (Homo sapiens) (UniProt Q05513); assay: Inhibition of human PKCzeta at 10 uM after 60 mins by TR-FRET assay; values are per cent of control
[27] = biological target: Casein kinase I isoform gamma-2 (Homo sapiens) (UniProt P78368); assay: Inhibition of human CK1gamma2 at 10 uM after 60 mins by TR-FRET assay; values are per cent of control

residual activity [1]: 76% | residual activity [2]: 102% | residual activity [3]: 116% | residual activity [4]: 119% | residual activity [5]: 97% | residual activity [6]: 114% | residual activity [7]: 110% | residual activity [8]: 136% | residual activity [9]: 101% | residual activity [10]: 110% | residual activity (Homo sapiens): 93% | residual activity [11]: 105% | residual activity [12]: 80% | residual activity [13]: 103% | residual activity [14]: 114% | residual activity [15]: 110% | residual activity [16]: 91% | residual activity [17]: 108% | residual activity [18]: 104% | residual activity [19]: 112% | residual activity [20]: 110% | residual activity [21]: 102% | residual activity [22]: 126% | residual activity [23]: 93% | residual activity [25]: 110% | residual activity [26]: 115% | residual activity [27]: 99%
SMILES: S=c1[nH]nc(-c2ccncc2)n1-c1ccc2ccccc2c1
residual activity [24]: 108%
